According to patent US20070128217A1 (priority 2003, published 2007):

Assays:
[1] = system: rabbit serum obtained by immunizing a rabbit with the SARS-CoV strain Frankfurt 1; assay type: binding; parameters: Binding of a rabbit serum to linear peptides / Binding of a rabbit serum to looped peptides / Rabbit serum linear peptides / Rabbit serum looped peptides / Binding of a rabbit serum to linear peptides of protein N of SARS-CoV Urbani (Rabbit serum linear peptides) / Binding of a rabbit serum to looped/cyclic peptides of protein N of SARS-CoV Urbani (Rabbit serum looped peptides): unit not given here
[2] = system: control sera (pooled serum of ten healthy LUMC hospital workers; commercial negative donor pooled serum from the Dutch bloodbank); assay type: binding, human; parameters: Binding of Control serum LUMC to linear peptides / Binding of Control serum Blood-bank to linear peptides / Binding of Control serum LUMC to looped peptides / Binding of Control Serum Blood-Bank to Looped peptides / Binding of Control serum LUMC to linear peptides of the protein M of SARS-CoV Urbani / Binding of Control serum Blood-bank to linear peptides of the protein M of SARS-CoV Urbani / Binding of Control serum LUMC to looped peptides of the protein M of SARS-CoV Urbani / Binding of Control Serum Blood-Bank to Looped peptides of the protein M of SARS-CoV Urbani: unit not given here
[3] = system: antibodies in sera from SARS patients (sera 1a, 1b, 2, 6, 37, 62, London, SARS-yellow, SARS-green); assay type: binding, human; parameters: Binding of serum 6 to linear peptides of protein X1 of SARS-CoV Urbani / Binding of serum 37 to linear peptides of protein X1 of SARS-CoV Urbani / Binding of serum 6 to looped/cyclic peptide (PEPSCAN-ELISA) / Binding of serum 37 to looped/cyclic peptide (PEPSCAN-ELISA) / Binding of serum 37 to looped/cyclic peptides of protein X1 of SARS-CoV Urbani / Binding of serum 6 to linear peptides of protein X2 / Binding of serum 37 to linear peptides of protein X2 / Binding of serum 37 to looped/cyclic peptides of protein X2 of SARS-CoV Urbani / Binding of serum 6 to linear peptides of protein M of SARS-CoV Urbani / Binding of serum 37 to linear peptides of protein M of SARS-CoV Urbani / Binding of serum 6 to looped/cyclic peptides of protein M of SARS-CoV Urbani / Binding of serum 37 to looped/cyclic peptides of protein M of SARS-CoV Urbani / Binding of serum 6 to linear peptides of protein X3 of SARS-CoV Urbani / Binding of serum 37 to linear peptides of protein X3 of SARS-CoV Urbani / Binding of serum 37 to looped/cyclic peptides of protein X3 of SARS-CoV Urbani / Binding of serum 6 to linear peptides of protein X4 of SARS-CoV Urbani / Binding of serum 37 to linear peptides of protein X4 of SARS-CoV Urbani / Binding of serum 37 to looped/cyclic peptides of protein X4 of SARS-CoV Urbani / Binding of serum 6 to linear peptides of protein X5 of SARS-CoV Urbani / Binding of serum 37 to linear peptides of protein X5 of SARS-CoV Urbani / Binding of serum 37 to looped/cyclic peptides of protein X5 of SARS-CoV Urbani / Binding of serum 6 to linear peptides of protein N of SARS-CoV Urbani / Binding of serum 37 to linear peptides of protein N of SARS-CoV Urbani / Binding of serum 6 to linear peptide (PEPSCAN-ELISA) / Binding of serum 1a to looped/cyclic peptides of protein N of SARS-CoV Urbani / Binding of serum 1b to looped/cyclic peptides of protein N of SARS-CoV Urbani / Binding of serum 2 to looped/cyclic peptides of protein N of SARS-CoV Urbani / Binding of serum 6 to looped/cyclic peptides of protein N of SARS-CoV Urbani / Binding of serum 37 to looped/cyclic peptides of protein N of SARS-CoV Urbani / Binding of serum 62 to looped/cyclic peptides of protein N of SARS-CoV Urbani / Binding of serum London to looped/cyclic peptides of protein N of SARS-CoV Urbani / Binding of serum SARS-green to looped/cyclic peptides of protein N of SARS-CoV Urbani: unit not given here

| Sequence | Binding of a rabbit serum to linear peptides [1] | Binding of a rabbit serum to looped peptides [1] | Binding of Control Serum Blood-Bank to Looped peptides [2] | Binding of Control serum Blood-bank to linear peptides [2] | Binding of Control serum LUMC to linear peptides [2] | Binding of Control serum LUMC to looped peptides [2] | Binding of serum 1a to linear peptides of protein X1 of SARS-CoV Urbani [3] | Binding of serum 1b to linear peptides of protein X1 of SARS-CoV Urbani [3] | Binding of serum 2 to linear peptides of protein X1 of SARS-CoV Urbani [3] | Binding of serum 6 to linear peptides of protein X1 of SARS-CoV Urbani [3] | Binding of serum 37 to linear peptides of protein X1 of SARS-CoV Urbani [3] | Binding of serum 62 to linear peptides of protein X1 of SARS-CoV Urbani [3] | Binding of serum London to linear peptides of protein X1 of SARS-CoV Urbani [3] | Binding of serum SARS-green to linear peptides of protein X1 of SARS-CoV Urbani [3] | Binding of serum SARS-yellow to linear peptides of protein X1 of SARS-CoV Urbani [3] | Binding of serum 1a to looped/cyclic peptides of protein X1 of SARS-CoV Urbani [3] | Binding of serum 1b to looped/cyclic peptides of protein X1 of SARS-CoV Urbani [3] | Binding of serum 2 to looped/cyclic peptides of protein X1 of SARS-CoV Urbani [3] | Binding of serum 6 to looped/cyclic peptides of protein X1 of SARS-CoV Urbani [3] | Binding of serum 37 to looped/cyclic peptides of protein X1 of SARS-CoV Urbani [3] | other results |
| --- | --- | --- | --- | --- | --- | --- | --- | --- | --- | --- | --- | --- | --- | --- | --- | --- | --- | --- | --- | --- | --- |
| HLLLVAAGMEAQFLY | 0.5 | 0.4 | 0.6 | 0.6 | 0.7 | 0.4 | 0.9 | 0.7 | 0.6 | 0.5 | 0.7 | 0.7 | 0.3 | 0.2 | 0.6 | – | – | – | – | – | Binding of serum 1a to looped/cyclic peptide (PEPSCAN-ELISA) [3]: 0.5; Binding of serum 1b to looped/cyclic peptide (PEPSCAN-ELISA) [3]: 0.6; Binding of serum 2 to looped/cyclic peptide (PEPSCAN-ELISA) [3]: 0.6; Binding of serum 6 to looped/cyclic peptide (PEPSCAN-ELISA) [3]: 0.1; Binding of serum 37 to looped/cyclic peptide (PEPSCAN-ELISA) [3]: 0.6; Binding of serum 62 to looped/cyclic peptide (PEPSCAN-ELISA) [3]: 0.6; Binding of serum London to looped/cyclic peptide (PEPSCAN-ELISA) [3]: 0.2; Binding of serum SARS-green to looped/cyclic peptide (PEPSCAN-ELISA) [3]: 0.4; Binding of serum SARS-yellow to looped/cyclic peptide (PEPSCAN-ELISA) [3]: 0.3 |
| HTYQLRARSVSPKLF | – | – | 0.8 | 1.0 | 0.9 | 0.7 | – | – | – | – | – | – | – | – | – | – | – | – | – | – | Recognition of the peptide by the rabbit serum [1]: recognized; Binding of serum 1a to linear peptides of protein X4 of SARS-CoV Urbani [3]: 0.7; Binding of serum 1a to looped/cyclic peptides of protein X4 of SARS-CoV Urbani [3]: 0.8; Binding of serum 1b to linear peptides of protein X4 of SARS-CoV Urbani [3]: 0.8; Binding of serum 1b to looped/cyclic peptides of protein X4 of SARS-CoV Urbani [3]: 0.5; Binding of serum 2 to linear peptides of protein X4 of SARS-CoV Urbani [3]: 0.6; Binding of serum 2 to looped/cyclic peptides of protein X4 of SARS-CoV Urbani [3]: 0.8; Binding of serum 6 to linear peptides of protein X4 of SARS-CoV Urbani [3]: 1.0; Binding of serum 6 to looped/cyclic peptides of protein X4 of SARS-CoV Urbani [3]: 0.8; Binding of serum 37 to linear peptides of protein X4 of SARS-CoV Urbani [3]: 1.0; Binding of serum 37 to looped/cyclic peptides of protein X4 of SARS-CoV Urbani [3]: 0.6; Binding of serum 62 to linear peptides of protein X4 of SARS-CoV Urbani [3]: 0.9; Binding of serum 62 to looped/cyclic peptides of protein X4 of SARS-CoV Urbani [3]: 0.6; Binding of serum London to linear peptides of protein X4 of SARS-CoV Urbani [3]: 0.8; Binding of serum London to looped/cyclic peptides of protein X4 of SARS-CoV Urbani [3]: 0.3; Binding of serum SARS-green to linear peptides of protein X4 of SARS-CoV Urbani [3]: 0.7; Binding of serum SARS-green to looped/cyclic peptides of protein X4 of SARS-CoV Urbani [3]: 0.4; Binding of serum SARS-yellow to linear peptides of protein X4 of SARS-CoV Urbani [3]: 0.5; Binding of serum SARS-yellow to looped/cyclic peptides of protein X4 of SARS-CoV Urbani [3]: 0.8 |
| IDGSSGVANPAMDPI | 0.1 | 0.5 | 0.6 | 0.6 | 0.6 | 0.7 | 0.7 | 0.6 | 0.7 | 0.5 | 0.6 | 0.6 | 0.4 | 0.3 | 0.4 | 0.8 | 0.7 | 0.5 | 0.3 | 0.7 | Binding of serum 62 to looped/cyclic peptides of protein X1 of SARS-CoV Urbani [3]: 0.6; Binding of serum SARS-green to looped/cyclic peptides of protein X1 of SARS-CoV Urbani [3]: 0.6; Binding of serum SARS-yellow to looped/cyclic peptides of protein X1 of SARS-CoV Urbani [3]: 0.4 |
| IENATFFIFNKLVKD | 0.1 | 0.5 | 0.5 | 0.4 | 0.3 | 0.5 | 0.6 | 0.5 | 0.5 | 0.3 | 0.5 | 0.5 | 0.2 | 0.2 | 0.4 | 0.5 | 0.4 | 0.4 | 0.2 | 0.5 | Binding of serum 62 to looped/cyclic peptides of protein X1 of SARS-CoV Urbani [3]: 0.5; Binding of serum London to looped/cyclic peptides of protein X1 of SARS-CoV Urbani [3]: 0.2; Binding of serum SARS-green to looped/cyclic peptides of protein X1 of SARS-CoV Urbani [3]: 0.1; Binding of serum SARS-yellow to looped/cyclic peptides of protein X1 of SARS-CoV Urbani [3]: 0.3 |
| IHTIDGSSGVANPAM | 0.1 | 0.5 | 0.4 | 0.7 | 0.8 | 0.4 | 0.7 | 0.7 | 0.8 | 0.5 | 0.7 | 0.8 | 0.5 | 0.5 | 0.6 | 0.5 | 0.4 | 0.3 | 0.2 | 0.3 | Binding of serum 62 to looped/cyclic peptides of protein X1 of SARS-CoV Urbani [3]: 0.3; Binding of serum London to looped/cyclic peptides of protein X1 of SARS-CoV Urbani [3]: 0.2; Binding of serum SARS-green to looped/cyclic peptides of protein X1 of SARS-CoV Urbani [3]: 0.3; Binding of serum SARS-yellow to looped/cyclic peptides of protein X1 of SARS-CoV Urbani [3]: 0.2 |
